Measured values taken from patent US20260191849A1, “PHARMACEUTICAL COMPOSITION FOR TREATMENT OF CANCER” (WIGEN BIOMEDICINE TECHNOLOGY (SHANGHAI) CO., LTD., priority 2022, published 2026).

Assays:
[1] = tested on: Histone H3 Ser10 site in HT29 cells; experiment: Phosphorylation assay of histone H3 Ser10 site in HT29 cells, immunofluorescence (Biological Example 4); assay type: cell-based; details: Homo sapiens, HT-29, 6 h, FITC/DAPI
Protocol: HT29 cells were seeded in a 96-well plate (Fisher 160376) at 8000 cells/well. The next day, the serially diluted compounds were added. Six hours after the addition of the compounds, the cells were washed once with 1×PBS, immobilized with 4% PFA for 15 min, further washed three times with 1×PBS, and permeabilized with 0.02% Triton-X100 for 10 min. Then, blocking was performed for 15-30 min using a blocking buffer. After a primary antibody (Phospho-Histone H3 (Ser10)) at a 1:3000 dilution was added, the well plate was left to stand at 4° C. overnight. The next day, the cells were washed three times with 1×PBS, and then a secondary antibody (Fluorescein (FITC)-conjugated Affinipure Goat Anti-Rabbit IgG (H+L)) at a 1:1000 dilution was added. The cells were incubated in the dark for 1-2 h and then washed three times with 1×PBS. Subsequently, the cell nuclei were stained using DAPI. The ratio of phosphorylation (FITC/DAPI) at H3 Ser10 site in HT29 cells was quantified. The effects of the compounds on Phospho-Histone H3 were evaluated, and EC50 values of the compounds were calculated.

[2] = tested on: HT29 subcutaneous xenograft tumors; experiment: In vivo pharmacodynamic study of combination therapy, HT29 subcutaneous xenograft tumor model of mice (Biological Example 14); set-up: species or system BALB/c nude mice
From the text: BALB/c nude mice were each inoculated subcutaneously with 5×10^6 HT29 cells on the left dorsal side. After the tumors grew to 100-150 mm^3, the mice were randomly divided into the following groups for intragastric administration once daily for 14 consecutive days: group 1: vehicle control group; group 2: AMG650 (50 mpk, PO, QD); group 3: compound 714 (50 mpk, PO, QD); group 4: AMG650 (50 mpk, PO, QD)+Onvasertib (20 mpk, PO, QD); group 5: compound 714 (50 mpk, PO, QD)+Onvasertib (20 mpk, PO, QD); and group 6: Onvasertib (20 mpk, PO, QD). The administration to all the groups was stopped on day 15, and the tumor growth continued to be observed until day 21. The tumor volume was measured twice weekly and at the end of administration. […]

[3] = tested on: HT29 subcutaneous xenograft tumors; experiment: In vivo pharmacodynamic study, HT29 subcutaneous xenograft tumor model of mice (Biological Example 3); set-up: species or system BALB/c nude mice; details: for Tumor volume on day 1 of administration / TGI / Tumor volume on day 28 of administration: 80 mg/kg intragastric once daily; for Tumor volume on day 1 of administration: day 1 (baseline); for TGI / Tumor volume on day 28 of administration: day 28; for inhibitory effects on the HT29 subcutaneous xenograft tumor in mice compared with AMG650: 80 mg/kg, in words
Protocol: BALB/c nude mice were each inoculated subcutaneously with 5×10^6 HT29 cells on the left dorsal side. After the tumors grew to 100-150 mm^3, the mice were randomly divided into the following groups for intragastric administration once daily: group 1: vehicle control group; group 2: compound 661 (80 mg/kg); group 3: compound 669 (80 mg/kg); group 4: compound 677 (80 mg/kg); group 5: compound 714 (80 mg/kg); group 6: compound 727 (80 mg/kg); group 7: compound 740 (80 mg/kg); and group 8: AMG65 (80 mg/kg). The tumor volume was measured twice weekly and at the end of administration. […].

[4] = PO QD 14 days, AMG650/714 50 mpk, Onvasertib 20 mpk, day 15
[5] = PO QD 14 days, AMG650/714 50 mpk, Onvasertib 20 mpk, day 21, after stop of administration

Compound | EC50 [1] [nM] | Tumor volume on day 1 of administration ([2]; PO QD 14 days, AMG650/714 50 mpk, Onvasertib 20 mpk, day 1 (baseline)) [mm^3] | TGI on day 15 [2, 4] [%] | Tumor volume on day 15 of administration [2, 4] [mm^3] | TGI on day 21 [2, 5] [%] | Tumor volume on day 21 of administration [2, 5] [mm^3] | tumor inhibitory effect, combined use with the PLK1 inhibitor Onvasertib compared with monotherapy ([2]; combined with Onvasertib, in words) | therapeutic efficacy of monotherapy in HT29-bearing mice ([2]; monotherapy, in words) | Tumor volume on day 1 of administration [3] [mm^3] | TGI [3] [%] | Tumor volume on day 28 of administration [3] [mm^3] | inhibitory effects on the HT29 subcutaneous xenograft tumor in mice compared with AMG650 [3]
COc1ccc(NC(=O)c2ccc(NS(=O)(=O)CCOC(=O)[C@@H](N)C(C)C)cc2N2CCC3(CC2)CC3)nc1N1CCC(F)(F)CC1 [Compound 714] | 39.2 | 134 | 121 | 17 | 110 | 49 | stronger tumor inhibitory effect | able to inhibit tumor growth | 121 | 80 | 424 | stronger inhibitory effects
COc1ccc(C(=O)Nc2ccc(NS(=O)(=O)CCOC(=O)[C@@H](N)C(C)C)cc2N2CCC3(CC2)CC3)nc1N1CCC(F)(F)CC1 [Compound 727] | – | – | – | – | – | – | – | – | 121 | 73 | 519 | stronger inhibitory effects
COc1ccc(NC(=O)c2ccc(S(=O)(=O)NCCOC(=O)[C@@H](N)C(C)C)cc2N2CCC3(CC2)CC3)nc1N1CCC(F)(F)CC1 [Compound 740] | – | – | – | – | – | – | – | – | 121 | 67 | 605 | stronger inhibitory effects
